Test results reported in US20110028442A1, “DERIVATIVES OF 4-(2-AMINO-1-HYDROXYETHYL) PHENOL AS AGONISTS OF THE BETA2 ADRENERGIC RECEPTOR” (priority 2008, published 2011).

Experiments:
[1] = biological target: T1, human adrenergic β1 receptor (Homo sapiens, UniProt P08588); test: Human adrenergic β1 receptor binding assay (3H-CGP12177, Sf9 membranes); details: membranes from Sf9 cells, 0.14 nM 3H-CGP12177, 60 minutes at room temperature
T1 construct: purchased Perkin Elmer; host or cells: Sf9 cells
T1 sequence (P08588 whole entry): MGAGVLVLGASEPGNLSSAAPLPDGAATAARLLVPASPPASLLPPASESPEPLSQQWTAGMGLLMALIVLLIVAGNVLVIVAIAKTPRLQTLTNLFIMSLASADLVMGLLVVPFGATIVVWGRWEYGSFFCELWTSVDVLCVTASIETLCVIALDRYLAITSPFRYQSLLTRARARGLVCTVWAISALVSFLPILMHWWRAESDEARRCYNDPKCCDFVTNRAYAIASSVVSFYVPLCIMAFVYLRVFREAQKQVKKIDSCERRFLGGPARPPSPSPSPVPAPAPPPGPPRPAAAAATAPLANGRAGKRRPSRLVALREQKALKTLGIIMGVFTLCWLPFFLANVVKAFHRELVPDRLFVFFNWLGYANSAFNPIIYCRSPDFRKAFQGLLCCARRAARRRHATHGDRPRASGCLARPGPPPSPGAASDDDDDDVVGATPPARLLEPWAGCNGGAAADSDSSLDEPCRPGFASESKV
Method: (§1) Human Adrenergic β1 and β2 Receptor Binding Assays
(§2) The study of binding to human adrenergic β1 and β2 receptors was performed using commercial membranes prepared from Sf9 cells where they are overexpressed (Perkin Elmer).
(§3) The membrane suspensions (16 μg/well for β1 and 5 μg/well for β2) in assay buffer, 75 mM Tris/HCl with 12.5 mM MgCl2 and 2 mM EDTA pH=7.4, were incubated with 0.14 nM 3H-CGP12177 (Amersham) and different concentrations of the test compounds, in a final volume of 250 μl, in GFC Multiscreen 96 well plates (Millipore) pretreated with +0.3% PEI. Non specific binding was measured in the presence of 1 μM propanolol. Incubation was for 60 minutes at room temperature and with gentle shaking. The binding reactions were terminated by filtration and washing with 2.5 volumes of Tris/HCl 50 mM pH=7.4. The affinity of each test compound to the receptor was determined by using at least six different concentrations ran in duplicate. IC50 values were obtained by non-linear regression using SAS.

[2] = biological target: T2, human adrenergic β2 receptor (Homo sapiens, UniProt P07550); test: Human adrenergic β2 receptor binding assay (3H-CGP12177, Sf9 membranes); details: for IC50: membranes from Sf9 cells, 0.14 nM 3H-CGP12177, 60 minutes at room temperature; for β1/β2 ratio: ratio of human β1 IC50 to human β2 IC50
T2 construct: purchased Perkin Elmer; host or cells: Sf9 cells
T2 sequence (P07550 whole entry): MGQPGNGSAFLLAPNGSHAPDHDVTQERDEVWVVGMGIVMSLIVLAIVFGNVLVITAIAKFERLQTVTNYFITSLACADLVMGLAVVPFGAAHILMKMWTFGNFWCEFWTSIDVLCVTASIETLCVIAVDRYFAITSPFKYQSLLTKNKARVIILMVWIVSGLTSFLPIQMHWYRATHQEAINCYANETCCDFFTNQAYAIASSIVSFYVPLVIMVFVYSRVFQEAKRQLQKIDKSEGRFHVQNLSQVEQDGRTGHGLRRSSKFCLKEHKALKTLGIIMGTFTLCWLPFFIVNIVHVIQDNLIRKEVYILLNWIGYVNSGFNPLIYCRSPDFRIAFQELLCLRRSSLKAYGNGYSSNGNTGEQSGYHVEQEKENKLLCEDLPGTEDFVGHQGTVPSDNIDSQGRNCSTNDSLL
Method: as §1, §2, §3

IC50 [1] [nM]	IC50 [2] [nM]	β1/β2 ratio [2]	SMILES
45.5	7.6	6.0	CC(C)(C)c1ccc(CNC(=O)Nc2cccc(CCNC[C@H](O)c3ccc(O)c4[nH]c(=O)ccc34)c2)cc1 (racemic) [Example 33, N-(4-tert-butylbenzyl)-N′-[3-(2-{[(2R,S)-2-hydroxy-2-(8-hydroxy-2-oxo-1,2-dihydroquinolin-5-yl)ethyl]amino}ethyl)phenyl]urea]
98	12	8.2	CC(Cc1cccc(NC(=O)NCc2ccccc2)c1)NCC(O)c1ccc(O)c2[nH]c(=O)ccc12 [Example 3, N-benzyl-N′-[3-((2R,S)-2-{[(2R,S)-2-hydroxy-2-(8-hydroxy-2-oxo-1,2-dihydroquinolin-5-yl)ethyl]amino}propyl)phenyl]urea]
54	4.6	11.7	COc1ccccc1CNC(=O)Nc1cccc(CC(C)NCC(O)c2ccc(O)c3[nH]c(=O)ccc23)c1 [Example 6, N-[3-(2R,S)-2-{[(2R,S)-2-hydroxy-2-(8-hydroxy-2-oxo-1,2-dihydroquinolin-5-yl)ethyl]amino}propyl)phenyl]-N′-(2-methoxybenzyl)urea]
49	4.4	11.0	O=C(NCc1ccccc1)Nc1cccc(CCNCC(O)c2ccc(O)c3[nH]c(=O)ccc23)c1 [Example 8, N-benzyl-N′-[3-(2-{[(2R,S)-2-hydroxy-2-(8-hydroxy-2-oxo-1,2-dihydroquinolin-5-yl)ethyl]amino}ethyl)phenyl]urea]
44.5	5.6	7.9	COc1ccccc1CNC(=O)Nc1cccc(CCNCC(O)c2ccc(O)c3[nH]c(=O)ccc23)c1 [Example 9, N-[3-(2-{[(2R,S)-2-hydroxy-2-(8-hydroxy-2-oxo-1,2-dihydroquinolin-5-yl)ethyl]amino}ethyl)phenyl]-N′-(2-methoxybenzyl)urea]
9	6.2	1.4	O=C(NCCc1ccccc1)Nc1cccc(CCNCC(O)c2ccc(O)c3[nH]c(=O)ccc23)c1 [Example 11, N-[3-(2-{[(2R,S)-2-hydroxy-2-(8-hydroxy-2-oxo-1,2-dihydroquinolin-5-yl)ethyl]amino}ethyl)phenyl]-N′-(2-phenylethyl)urea]
19.5	2.6	7.4	O=C(NCCCc1ccccc1)Nc1cccc(CCNCC(O)c2ccc(O)c3[nH]c(=O)ccc23)c1 [Example 12, N-[3-(2-{[(2R,S)-2-hydroxy-2-(8-hydroxy-2-oxo-1,2-dihydroquinolin-5-yl)ethyl]amino}ethyl)phenyl]-N′-(3-phenylpropyl)urea]
4.4	10.5	0.4	O=C(Nc1ccccc1)Nc1cccc(CCNCC(O)c2ccc(O)c3[nH]c(=O)ccc23)c1 [Example 15, N-[3-(2-{[(2R,S)-2-hydroxy-2-(8-hydroxy-2-oxo-1,2-dihydroquinolin-5-yl)ethyl]amino}ethyl)phenyl]-N′-phenylurea]
38.5	10	3.8	O=C(Nc1cccc(CCNCC(O)c2ccc(O)c3[nH]c(=O)ccc23)c1)NC12CC3CC(CC(C3)C1)C2 [Example 16, N-1-adamantyl-N′-[3-(2-{[(2R,S)-2-hydroxy-2-(8-hydroxy-2-oxo-1,2-dihydroquinolin-5-yl)ethyl]amino}ethyl)phenyl]urea]
78	6	13	O=C(NCc1c(Cl)cccc1Cl)Nc1cccc(CCNCC(O)c2ccc(O)c3[nH]c(=O)ccc23)c1 [Example 17, N-(2,6-dichlorobenzyl)-N′-[3-(2-{[(2R,S)-2-hydroxy-2-(8-hydroxy-2-oxo-1,2-dihydroquinolin-5-yl)ethyl]amino}ethyl)phenyl]urea]
13	2.9	4.5	O=C(NCCCCc1ccccc1)Nc1cccc(CCNCC(O)c2ccc(O)c3[nH]c(=O)ccc23)c1 [Example 20, N-[3-(2-{[(2R,S)-2-hydroxy-2-(8-hydroxy-2-oxo-1,2-dihydroquinolin-5-yl)ethyl]amino}ethyl)phenyl]-N′-(4-phenylbutyl)urea]
36	5.9		O=C(NCC12CC3CC(CC(C3)C1)C2)Nc1cccc(CCNCC(O)c2ccc(O)c3[nH]c(=O)ccc23)c1 [Example 23, N-(1-adamantylmethyl)-N′-[3-(2-{[(2R,S)-2-hydroxy-2-(8-hydroxy-2-oxo-1,2-dihydroquinolin-5-yl)ethyl]amino}ethyl)phenyl]urea]
24.5	5.3	4.6	O=C(Nc1cccc(CCNC[C@H](O)c2ccc(O)c3[nH]c(=O)ccc23)c1)NC(c1ccccc1)c1ccccc1 [Example 26, N-(diphenylmethyl)-N′-[3-(2-{[(2R)-2-hydroxy-2-(8-hydroxy-2-oxo-1,2-dihydroquinolin-5-yl)ethyl]amino}ethyl)phenyl]urea]
24	9.7	2.5	O=C(Nc1cccc(CCNC[C@H](O)c2ccc(O)c3[nH]c(=O)ccc23)c1)Nc1ccccc1-c1ccccc1 [Example 27, N-biphenyl-2-yl-N′-[3-(2-{[(2R)-2-hydroxy-2-(8-hydroxy-2-oxo-1,2-dihydroquinolin-5-yl)ethyl]amino}ethyl)phenyl]urea]
25.5	2.8	9.1	C[C@@H](Cc1cccc(NC(=O)Nc2ccccc2-c2ccccc2)c1)NC[C@H](O)c1ccc(O)c2[nH]c(=O)ccc12 [Example 32, N-biphenyl-2-yl-N′-[3-(2-{[(2R)-2-hydroxy-2-(8-hydroxy-2-oxo-1,2-dihydroquinolin-5-yl)ethyl]amino}propyl)phenyl]urea, b isomer]
19.5	4.5	4.3	O=C(Nc1ccc(CCNC[C@H](O)c2ccc(O)c3[nH]c(=O)ccc23)cc1)NC(c1ccccc1)c1ccccc1 [Example 36, N-(diphenylmethyl)-N′-[4-(2-{[(2R)-2-hydroxy-2-(8-hydroxy-2-oxo-1,2-dihydroquinolin-5-yl)ethyl]amino}ethyl)phenyl]urea]
